Test results: patent publication US20260191853A1, “METHOD OF TREATING DRUG-INDUCED BRADYARRHYTHMIA” (OSAKA UNIVERSITY, priority 2022, published 2026)
“Also recorded” adds a separate entry of the source.

Legend:
Hartley guinea pigs [1] = test: Preventive effect on fingolimod-induced bradyarrhythmia in isoflurane-anesthetized guinea pig model; assay type: in vivo
Procedure: A solvent or compound (I) (free form) was administered by oral gavage at a dose of 1, 3, or 10 mg/kg (volume: 5 mL/kg) to Hartley guinea pigs (7 to 10 weeks old, male, available from Japan SLC, Inc.). After completion of the administration, each animal was subjected to anesthetic induction by inhalation of isoflurane (available from Pfizer Japan Inc.), and the animal was held on an operating table having a heater function. The trachea was incised, and a tracheal cannula (KN-375, available from Natsume Seisakusho Co., Ltd.) was inserted. The tracheal cannula was connected to a ventilator (SN-480-7, available from Shinano Seisakusho Co., Ltd.), and artificial respiration was controlled by supplying 100% oxygen at a volume of 10 mL and a ventilation rate of 60 times/minute. The solvent used was 0.5 w/v % methyl cellulose 400 solution (available from FUJIFILM Wako Pure Chemical Corporation). Isoflurane (available from Pfizer Japan Inc.) anesthesia (about 1 to 4%, carrier gas: 100% oxygen) was used for maintenance of anesthesia. A catheter (BD intramedic polyethylene tubing PE50, available from Becton, Dickinson and Company) charged with 50 units/mL heparin (available from AY PHARMACEUTICALS CO., LTD.) was inserted into each of the carotid artery and the jugular vein and placed in the blood vessel. Systemic blood pressure was measured with a high-sensitivity DC amplifier (AD-611J, available from NIHON KOHDEN CORPORATION) via the catheter placed in the carotid artery. Electrodes were attached to the body surface, and a body surface electrocardiogram was measured with a high-sensitivity amplifier (AB-611J, available from NIHON KOHDEN CORPORATION). Blood pressure and electrocardiogram data were acquired and analyzed with PowerLab/Labchart system (available from ADInstruments). Analysis items are systolic blood pressure, diastolic blood pressure, average blood pressure, heart rate, P-wave width, PR interval, QRS width, QT interval, and corrected QT interval. Corrected QT interval was calculated using the fridericia formula (QTc=QT interval/RR interval^1/3). After stabilization of each parameter, fingolimod hydrochloride (synthesized with reference to WO 2000/027798) was continuously administered intravenously at 0.1 mg/kg for 10 minutes via the catheter placed in the jugular vein, followed by observation of the presence or absence of the onset of bradyarrhythmia for 60 minutes. The solvent used was saline (available from Otsuka Pharmaceutical Factory, Inc.). Data were recorded and blood was collected 5, 10, 15, 20, 30, and 60 minutes after initiation of administration of fingolimod hydrochloride. The observation was terminated 60 minutes after initiation of the administration, and the animal was euthanized by exsanguination or intravenous administration of a large amount of pentobarbital or saturated potassium chloride solution under isoflurane anesthesia. Data were analyzed for atrial beating rate over time, ventricular beating rate over time, electrocardiographic parameters, the presence or absence of the onset of atrioventricular block, and plasma concentrations of compound (I), fingolimod, and fingolimod phosphorylated form. The plasma was collected by centrifuging the blood and cryopreserved at about −20° C. After thawing of the plasma, plasma drug concentrations were measured using LC/MS/MS after deproteinization with acetonitrile.
Atrioventricular block was defined as follows.
Second-degree atrioventricular block: atrial activation wave (P wave) is normal, which is followed by or not followed by ventricular activation wave (QRS wave).
Third-degree atrioventricular block: there is no electrical conduction between the atrium and the ventricle, and atrial and ventricular activation waves are generated independently, resulting in atrioventricular dissociation.
In FIG. 1, the measurements are shown as mean±standard error. […]

Hartley guinea pigs [2] = test: Termination effect on siponimod-induced bradyarrhythmia in isoflurane-anesthetized guinea pig model; assay type: in vivo
Excerpt: Hartley guinea pigs (7 to 10 weeks old, male, available from Japan SLC, Inc.) were subjected to anesthetic induction by inhalation of isoflurane (available from Pfizer Japan Inc.), and each animal was held on an operating table having a heater function. The trachea was incised, and a tracheal cannula (KN-375, available from Natsume Seisakusho Co., Ltd.) was inserted. The tracheal cannula was connected to a ventilator (SN-480-7, available from Shinano Seisakusho Co., Ltd.), and artificial respiration was controlled by supplying 100% oxygen at a volume of 10 mL and a ventilation rate of 60 times/minute. Isoflurane (available from Pfizer Japan Inc.) anesthesia (about 1 to 4%, carrier gas: 100% oxygen) was used for maintenance of anesthesia. A catheter (BD intramedic polyethylene tubing PE50, available from Becton, Dickinson and Company) charged with 50 units/mL heparin (available from AY PHARMACEUTICALS CO., LTD.) was inserted into each of the carotid artery and the jugular vein and placed in the blood vessel. Systemic blood pressure was measured with a high-sensitivity DC amplifier (AD-611J, available from NIHON KOHDEN CORPORATION) via the catheter placed in the carotid artery. Electrodes were attached to the body surface, and a body surface electrocardiogram was measured with a high-sensitivity amplifier (AB-611J, available from NIHON KOHDEN CORPORATION). Blood pressure and electrocardiogram data were acquired and analyzed with PowerLab/Labchart system (available from ADInstruments). After stabilization of each parameter, siponimod (available from Nissan Chemical Corporation) was continuously administered intravenously at 0.01 mg/kg for 10 minutes via the catheter placed in the jugular vein, followed by observation of the presence or absence of atrioventricular block. The solvent used was a solution prepared by mixing of Polyethylene Glycol 400 (available from KANTO CHEMICAL CO., INC.) and dimethyl sulfoxide (available from FUJIFILM Wako Pure Chemical Corporation) at 9: 1 (volume ratio). […] Data were recorded and blood was collected 10, 20, and 30 minutes after initiation of administration of compound (I) dihydrochloride and at the time of termination of atrioventricular block. […] Data were analyzed for the presence or absence of the termination, the time required for the termination, and the plasma concentration of compound (I) at the time of termination. […] After thawing of the plasma, plasma drug concentrations were measured using LC/MS/MS after deproteinization with acetonitrile. […]

Cc1cc(CO)nc2cc3c(cc12)OC(C)(C)[C@H](O)[C@H]3NCCc1ccccc1 [Compound (I), (3R,4S)-7-Hydroxymethyl-2,2,9-trimethyl-4-(phenethylamino)-3,4-dihydro-2H-pyrano[2,3-g]quinoline-3-ol]
cases in which fingolimod-induced atrioventricular block was not observed (Hartley guinea pigs [1]; 1 mg/kg oral gavage, four cases per group): 75% | fingolimod-induced bradycardia (ventricular beating rate) (Hartley guinea pigs [1]; 3 mg/kg oral gavage, fingolimod hydrochloride 0.1 mg/kg i.v.): almost restored | cases in which fingolimod-induced atrioventricular block was not observed (Hartley guinea pigs [1]; 3 mg/kg oral gavage, four cases per group): 75% | fingolimod-induced bradycardia (ventricular beating rate / heart rate) (Hartley guinea pigs [1]; 10 mg/kg oral gavage, fingolimod hydrochloride 0.1 mg/kg i.v.): completely restored; also recorded: completely resolved | cases in which fingolimod-induced atrioventricular block was suppressed (Hartley guinea pigs [1]; 10 mg/kg oral gavage, four cases per group): 100% | onset of fingolimod-induced bradyarrhythmia (atrioventricular block) (Hartley guinea pigs [1]; 1, 3, 10 mg/kg oral gavage, FIG. 1 and FIG. 2): prevented the onset of fingolimod-induced bradyarrhythmia (atrioventricular block) in a dose-dependent manner | fingolimod-induced bradycardia (ventricular beating rate / heart rate) (Hartley guinea pigs [1]; compound (I) 1, 3, 10 mg/kg oral gavage before fingolimod hydrochloride 0.1 mg/kg i.v. over 10 min, FIG. 1): improved in a dose-dependent manner; also recorded: prevented a reduction in heart rate | fingolimod-induced prolongation of QT time (Hartley guinea pigs [1]; compound (I) oral gavage 1-10 mg/kg): almost completely suppressed | siponimod-induced bradyarrhythmia (atrioventricular block) termination (Hartley guinea pigs [2]; compound (I) dihydrochloride 0.1 mg/kg continuous i.v.): completely terminated | Compound (I) concentration at the time of termination (Hartley guinea pigs [2]; plasma, siponimod-induced block, 0.1 mg/kg continuous i.v. for 30 minutes, mean±standard error): 22.7 ± 3.1 ng/mL | Number of cases where atrioventricular block was terminated (Hartley guinea pigs [2]; siponimod-induced block, compound (I) dihydrochloride 0.1 mg/kg continuous i.v. for 30 minutes): 5/5 | Time required for the termination of atrioventricular block (Hartley guinea pigs [2]; siponimod-induced block, compound (I) dihydrochloride 0.1 mg/kg continuous i.v. for 30 minutes, mean±standard error): 638 ± 75 s
